Columns and labels:
[1] = tested on: SH-SY5Y cells; experiment: Flow cytometry of sub-G1 (PI) and annexin V/PI in transfected SH-SY5Y cells; type: cell-based, human; conditions: 0.1 μM, 24 h
Protocol: The fractionation scheme used to separate different cellular pools of tau, and the western blot analysis of the effects of the compounds on tau pools generated using the fractionation scheme are presented. b, d SH-SY5Y cells were transfected for 24 h with pCAX APP 695 and pRK5-EGFP-Tau P301L, incubated with or without MPT0G211 or ACY-1215 (0.1 μM) for another 24 h, and then the cells were fixed and stained by propidium iodide (b) or annexin V/PI double staining (d) and analyzed by flow cytometry. c, e Percentages of the subG1 phase (c) or annexin V-positive cells (e) in response to drug treatment as explained in (b). Results are presented as the mean ± SEM. *p < 0.05 and **p < 0.01 compared with the control group; ^#p < 0.05 and ^##p < 0.01 compared with the indicated groups TEXT PRINTED IN THE PICTURE: (B) MPT0G211: hAPP + hTauP301L: SubG1 10.91% | (B) ACY-1215: hAPP + hTauP301L: SubG1 15.40% | (D) MPT0G211: hAPP + hTauP301L: 9.56%; hAPP + hTauP301L: 11.26% | (D) ACY-1215: hAPP + hTauP301L: 9.28%; hAPP + hTauP301L: 11.25%
After drug treatment, the cells were collected, washed with cold phosphate-buffered saline (PBS), and fixed with 75% alcohol overnight at −20 °C. After centrifugation, the fixed cells were washed with cold PBS and resuspended in DNA extraction buffer (0.2 M Na2HPO4, 0.1 M citric acid, pH 7.8) for 30 min. The cells were centrifuged and incubated with propidium iodide (PI) (0.1% Triton X-100, 100 μg/mL RNase A, and 80 μg/mL PI in PBS) for 30 min. The cell cycle was analyzed using a FACScan Flow cytometer and Cell Quest software (Becton Dickinson, Mountain View, CA, USA).

[2] = Elevated plus maze; design: species or system rat; conditions: AD in vivo models; stated in introduction only
Protocol: The plus maze consisted of two open and two closed arms, connected by a central platform. Animals were individually placed at the end of either of the open arms facing away from the central platform. The time for each rat to move from the open arm to either of the closed arms was recorded. […] These experiments were performed in accordance with relevant ethics guidelines and regulations, which were reviewed and approved by the Animal Use and Management Committee of the College of Medicine, National Taiwan University (IACUC number: 20130361).

[3] = tested on: 3×Tg-AD mice; experiment: Immunohistochemistry and western blot of brain (hippocampal CA1) of 3×Tg-AD mice; type: in vivo, mouse; conditions: 3×Tg-AD mice, 50, 100 mg/kg oral, 3 months
Excerpt: Red arrowheads indicate phosphorylated-tau proteins. Scale bar = 25 μm. Data represent the mean ± SEM. *p < 0.05, **p < 0.01, and ***p < 0.001 compared with the basal or control group; ^#p < 0.05, ^##p < 0.01, and ^###p < 0.001 compared with the vehicle-treated group

[4] = tested on: SH-SY5Y cells; experiment: Immunoprecipitation/immunoblot of HDAC6, acetyl-lysine, ubiquitin in transfected SH-SY5Y cells; type: cell-based, human; conditions: 24 h
Protocol: Fig. 4 MPT0G211 increased the ubiquitination of p-tau and degradation by proteasome. a, b SH-SY5Y and Neuro-2a cells were transfected for 24 h with pCAX APP 695 and pRK5-EGFP-Tau P301L and incubated with MPT0G211 or ACY-1215 (0.1 μM) for another 24 h, after which the cell lysates were immunoprecipitated with antibodies against HDAC6, acetyl-lysine (a) or ubiquitin (b) and were subjected to immunoblotting. c Cells were transfected with pCAX APP 695 and pRK5-EGFP-Tau P301L for 24 h and were then incubated with MPT0G211 (0.01–1 μM) for another 24 h. Immunoblots reveal polyubiquitin complexes. d pCAX APP 695 or pRK5-EGFP-Tau P301L were used to transfect the cells for 24 h, incubated with or without MG132 (1 μM) for 30 min, and were then treated with MPT0G211 or ACY-1215 (0.1 μM) for another 24 h. Cell lysates were prepared for western blot analysis of the indicated proteins
(§1) Cells (1 × 10^6) were incubated for 10 min at 4 °C in lysis buffer (20 mM HEPES, pH 7.4, 2 mM EGTA, 50 mM β-glycerophosphate, 0.1% Triton X-100, 10% glycerol, 1 mM dithiothreitol, 1 μg/mL leupeptin, 5 μg/mL aprotinin, 1 mM phenylmethylsulfonyl fluoride, and 1 mM sodium orthovanadate), scraped from the plate, incubated on ice for 10 min, and centrifuged at 17,000 × g for 30 min at 4 °C. Protein samples (30 μg) were electrophoresed through sodium dodecyl sulfate-polyacrylamide gels (SDS-PAGE) and transferred onto a nitrocellulose membrane, which was then blocked by incubation for 30 min at room temperature with 5% fat-free milk in PBS. Immunoblotting was performed by overnight incubation at 4 °C with primary antibodies in PBS, followed by incubation for 1 h at room temperature with HRP-conjugated secondary antibodies. Bound antibodies were measured using ECL reagent (T-Pro Biotechnology, New Taipei City, Taiwan), and the membrane was placed on a photographic film. Cell lysates (30 μg) were incubated with antibodies (1 μg each) and protein A/G agarose beads overnight at 4 °C. The precipitated beads were washed three times with 1 mL of ice-cold cell lysis buffer, and bound immune complexes were separated using 8% SDS-PAGE, followed by immunoblotting using the indicated primary antibody.

[5] = tested on: SH-SY5Y cells; experiment: Western blot of acetyl-α-tubulin and acetyl-histone, SH-SY5Y cells; type: cell-based, human; conditions: 0.1 to 1 μM, 24 h
Protocol: (§2) Cell viabilities were determined by MTT assay. The results represent the mean ± SEM of three independent experiments; *p < 0.05, **p < 0.01 and ***p < 0.001 compared with controls TEXT PRINTED IN THE PICTURE: (A) no label printed: M.W. 293.32
as §1

[6] = tested on: Neuro-2a cells; experiment: Western blot of acetyl-α-tubulin and acetyl-histone, Neuro-2a cells; type: cell-based, mouse; conditions: 0.1 to 1 μM, 24 h
Protocol: as §2, §1

[7] = hAPP + hTauP301L transfected SH-SY5Y, Fig. 3d picture, quadrant not identified

SMILES: O=C(NO)c1ccc(CNc2cccc3cccnc23)cc1 [MPT0G211, N-hydroxy-4-((quinolin-8-ylamino)methyl)benzamide]
- SubG1 population ([1]; hAPP + hTauP301L transfected SH-SY5Y, PI staining, Fig. 3b picture): 10.91%
- annexin V/PI double staining, quadrant percentage [1, 7]: 11.26%
- annexin V/PI double staining, quadrant percentage (first value) [1, 7]: 9.56%
- plasmid transfection-induced sub-G1 population and annexin V-positive apoptotic cells increase ([1]; transfected neuronal cells): significantly inhibited
- time spent in finding the closed arm (elevated plus maze) and platform (Morris water maze) [2]: reduced the time spent by animals in finding the platform and closed arm
- acetyl-α-tubulin accumulation in brain [3]: increased
- p-Tau (S396) expression in brain ([3]; hippocampal CA1): significantly downregulated
- p-Tau (S404) expression in brain ([3]; hippocampal CA1): significantly downregulated
- coimmunoprecipitation of ubiquitin with p-tau (Ser396) ([4]; 0.1 μM): clearly increased
- HDAC6/Hsp90 binding ([4]; 0.1 μM, IP): downregulation
- acetylation of Hsp90 ([4]; 0.1 μM, IP): clearly enhanced
- level of polyubiquitinated proteins ([4]; 0.01–1 μM): significantly accumulated
- acetylation of histones [5]: without affecting the acetylation of histones
- acetylation of α-tubulin [5]: concentration-dependently increased
- acetylation of histones [6]: without affecting the acetylation of histones
- acetylation of α-tubulin [6]: concentration-dependently increased
